We go through two molecules from PMC11796197, “Targeting AI-2 quorum sensing: harnessing natural products against Streptococcus suis biofilm infection” (Veterinary Research, 2025).

For the experiment, the target named is LuxS (S-ribosylhomocysteinase) (Streptococcus suis, UniProt A4VZM6). Kind of experiment: Ellman (DTNB) homocysteine assay, […] nm, SRH as substrate. It is filed as biochemical. Particulars: SRH 0-1200 uM, sodium phosphate buffer, 37 C, 15 min, LuxS 1 mg/mL.
Sequence of LuxS (S-ribosylhomocysteinase) (A4VZM6 whole entry): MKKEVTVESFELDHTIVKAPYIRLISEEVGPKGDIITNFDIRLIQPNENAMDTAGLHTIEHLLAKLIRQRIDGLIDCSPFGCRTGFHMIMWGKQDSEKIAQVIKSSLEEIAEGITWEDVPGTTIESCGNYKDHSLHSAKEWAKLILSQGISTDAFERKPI

Turning to `O=C(/C=C/c1ccc(O)c(O)c1/C=C/c1ccc(O)c(O)c1)O[C@H](Cc1ccc(O)c(O)c1)C(=O)O` [SAA, salvianolic acid A], the “Ellman (DTNB) homocysteine assay, 412 nm, SRH as substrate” value (noncompetitive) is “suggesting a noncompetitive inhibitory effect of SAA on LuxS”. `COc1ccc(/C=C/c2cc(O)cc(O[C@@H]3O[C@H](CO)[C@@H](O)[C@H](O)[C@H]3O)c2)cc1O` [RH, rhapontin]: for the setting “competitive”, the “Ellman (DTNB) homocysteine assay, 412 nm, SRH as substrate” value is listed as “indicating a competitive inhibitory impact of RH on LuxS”.
